# Paper PMC7395068, “The evolution of strategies to minimise the risk of human drug-induced liver injury (DILI) in drug discovery and development” (Archives of Toxicology, 2020)
# Like-named read-outs stand apart in the source and are kept apart here.
# Key:
# PHH [1] = settings: cited from earlier work; for PHH/100uM, Proctor (2017): 2D PHH, ATP, IC50 threshold 100 µM, ref Proctor et al. 2017; for PHH ATP <100uM: In vitro Assay, ref Proctor 2017
# PHH [2] = settings: In vitro Assay; ref Albrecht 2019; cited from earlier work
# HepaRG spheroids = test: Combined HCI (HCS) and cellular ATP 3D assay in HepaRG spheroids; settings: for HepaRG <25x Avg Cmax ATP / HepaRG <100x Avg Cmaxu ATP: ATP endpoint; for HepaRG <25x Avg Cmax ATP / HepaRG <25x Avg Cmax HCS / HepaRG <25x Avg Cmax All: cut-off <25x Avg Cmax; for HepaRG <100x Avg Cmaxu ATP / HepaRG <100x Avg Cmaxu HCS / HepaRG <100x Avg Cmaxu All: cut-off <100x Avg Cmaxu; for HepaRG <25x Avg Cmax HCS / HepaRG <100x Avg Cmaxu HCS: HCS endpoints; for HepaRG <25x Avg Cmax All: all endpoints (ATP and HCS); for HepaRG Cmax max All / HepaRG Cmax min All / HepaRG <10 uM All / HepaRG <100x Avg Cmaxu All: all endpoints; for HepaRG Cmax max All: Cmax max used; for HepaRG Cmax min All: Cmax min used; for HepaRG <10 uM All: cut-off <10 uM; for AC50 / minimal effective concentration: Homo sapiens; for HepaRG <25x Avg Cmax ATP / HepaRG <100x Avg Cmaxu ATP / HepaRG <25x Avg Cmax HCS / HepaRG <100x Avg Cmaxu HCS / HepaRG <25x Avg Cmax All / HepaRG Cmax max All / HepaRG Cmax min All / HepaRG <10 uM All / HepaRG <100x Avg Cmaxu All / AC50 / minimal effective concentration: HepaRG
# [3] = cited from earlier work
# [4] = Plasma free fraction (fu) and unbound Cmax (Cmax,u); type: in vitro ADME, human; settings: unbound plasma Cmax
# PHH spheroids = settings: cited from earlier work
# [5] = system: THLE or HepG2 cells, isolated mitochondria, BSEP; settings: cited from earlier work; for Partition Hybrid HRM Score / Ro2 Hybrid HRM Score: In vitro Assay, ref Aleo 2019; for Partition Hybrid HRM Score ≥4, Aleo (2019) / Partition Hybrid HRM Score ≥8, Aleo (2019) / Rule of Two hybrid HRM Score ≥3, Aleo (2019) / Rule of Two hybrid HRM Score ≥8, Aleo (2019): Modeled in vitro assays (cytotoxicity, mitochondrial dysfunction, BSEP), ref Aleo et al. 2019
# HepG2 cells [6] = settings: cited from earlier work
# [7] = read-out: Human plasma Cmax; total plasma Cmax.tot, median of 9 literature references; cited from earlier work
# HepG2 = system: HepG2; set-up: method as in Albrecht 2019; settings: In vitro Assay; ref Albrecht 2019; cited from earlier work
# hLiMTs [8] = test: Combined HCI (HCS) and cellular ATP 3D assay in hLiMTs; settings: for AC50 / minimal effective concentration: Homo sapiens; for hLiMTs <25x Avg Cmax ATP / hLiMTs <100x Avg Cmaxu ATP: ATP endpoint; for hLiMTs <25x Avg Cmax ATP / hLiMTs <25x Avg Cmax HCS / hLiMTs <25x Avg Cmax All: cut-off <25x Avg Cmax; for hLiMTs <100x Avg Cmaxu ATP / hLiMTs <100x Avg Cmaxu HCS / hLiMTs <100x Avg Cmaxu All: cut-off <100x Avg Cmaxu; for hLiMTs <25x Avg Cmax HCS / hLiMTs <100x Avg Cmaxu HCS: HCS endpoints; for hLiMTs <25x Avg Cmax All: all endpoints (ATP and HCS); for hLiMTs Cmax max All / hLiMTs Cmax min All / hLiMTs <10 uM All / hLiMTs <100x Avg Cmaxu All: all endpoints; for hLiMTs Cmax max All: Cmax max used; for hLiMTs Cmax min All: Cmax min used; for hLiMTs <10 uM All: cut-off <10 uM
# hLiMTs [9] = settings: cited from earlier work; for hLiMTs ATP <100uM: In vitro Assay, ref Proctor 2017; for hLiMTs/100uM, Proctor (2017): ATP, IC50 threshold 100 µM, ref Proctor et al. 2017
# [10] = cited from earlier work; remark: listed apart in the source
# [11] = plasma free fraction; cited from earlier work
# [12] = system: HepG2 cells, primary human hepatocytes; settings: In vitro Assay; ref Garside 2014; cited from earlier work
# [13] = system: THLE-Null and THLE-3A4 cells; settings: In vitro Assay; ref Gustafsson 2014; cited from earlier work
# HepG2 cells [14] = settings: In vitro Assay; ref Persson 2013; cited from earlier work
# [15] = system: isolated mouse liver mitochondria; settings: In vitro Assay; ref Porceddu 2012; cited from earlier work
# [16] = Microtissue model structural based (HCI), combined HCS and ATP, MEC < 25 × Cmax.tot cut-off
smiles,measurement,setting,value
CN(C)CCC(c1ccc(Cl)cc1)c1ccccn1 (stereo not drawn) [chlorpheniramine],"PHH/100uM, Proctor (2017)",PHH [1],-VE
same,PHH ATP <100uM,PHH [1],-VE
same,Cytotoxicity PHH 48 hrs,PHH [2],-VE
same,HepaRG <25x Avg Cmax ATP,HepaRG spheroids,-ve
same,HepaRG <100x Avg Cmaxu ATP,HepaRG spheroids,-ve
same,HepaRG <25x Avg Cmax HCS,HepaRG spheroids,-ve
same,HepaRG <100x Avg Cmaxu HCS,HepaRG spheroids,-ve
same,HepaRG <25x Avg Cmax All,HepaRG spheroids,-ve
same,HepaRG Cmax max All,HepaRG spheroids,-ve
same,HepaRG Cmax min All,HepaRG spheroids,-ve
same,HepaRG <10 uM All,HepaRG spheroids,-ve
same,HepaRG <100x Avg Cmaxu All,HepaRG spheroids,-ve
same,AC50,HepaRG spheroids; read-out: ATP endpoint AC50,129 µM
same,minimal effective concentration,HepaRG spheroids; read-out: ATP endpoint MEC,120 µM
same,AC50,HepaRG spheroids; read-out: HCS endpoint AC50,119 µM
same,minimal effective concentration,HepaRG spheroids; read-out: HCS endpoint MEC,14.3 µM
same,DILI prediction HepaRG spheroids (HCS-MEC),HepaRG spheroids; [16],-VE
same,Assigned DILI category,"[3]; Chen et al. 2016 or literature alignment, ref Chen et al. 2016",1
same,In vivo DILI,[3]; ref Albrecht 2019,-VE
same,In vivo DILI,[3]; ref Aleo 2019,-VE
same,In vivo DILI,[3]; ref O'Brien 2006,-VE
same,In vivo DILI,[3]; ref Proctor 2017,+VE
same,In vivo DILI,[3]; ref Vorrink 2018,-VE
same,In vivo DILI,[3]; ref Xu 2008,+VE
same,"Human plasma Cmax,u",[4],0.101 µM
same,hLiMTs ATP <20 x Cmax,"PHH spheroids; In vitro Assay, ref Vorrink 2018",-VE
same,"DILI in vitro assay prediction, Vorrink (2018)","PHH spheroids; PHH spheroids, ATP, 14 days, IC20 < 20 × Cmax.tot, ref Vorrink et al. 2018",-VE
same,Partition Hybrid HRM Score,[5],-VE
same,Ro2 Hybrid HRM Score,[5],-VE
same,"Partition Hybrid HRM Score ≥4, Aleo (2019)",[5],-VE
same,"Partition Hybrid HRM Score ≥8, Aleo (2019)",[5],-VE
same,"Rule of Two hybrid HRM Score ≥3, Aleo (2019)",[5],-VE
same,"Rule of Two hybrid HRM Score ≥8, Aleo (2019)",[5],-VE
same,Structural based (HCI),"HepG2 cells [6]; In vitro Assay, ref O'Brien 2006",+VE
same,"DILI in vitro assay prediction, O'Brien (2006)","HepG2 cells [6]; Structural based (HCI), HepG2, ref O'Brien et al. 2006",-VE
same,Cmax,[7],0.366 µM
same,Cytotoxicity HepG2 48 hrs,HepG2,-VE
same,AC50,hLiMTs [8]; read-out: ATP endpoint AC50,30.9 µM
same,minimal effective concentration,hLiMTs [8]; read-out: ATP endpoint MEC,10.7 µM
same,AC50,hLiMTs [8]; read-out: HCS endpoint AC50,98.5 µM
same,minimal effective concentration,hLiMTs [8]; read-out: HCS endpoint MEC,66.6 µM
same,DILI prediction hLiMTs (HCS-MEC),hLiMTs [8]; [16],-VE
same,hLiMTs <25x Avg Cmax ATP,hLiMTs [8],-ve
same,hLiMTs <100x Avg Cmaxu ATP,hLiMTs [8],-ve
same,hLiMTs <25x Avg Cmax HCS,hLiMTs [8],-ve
same,hLiMTs <100x Avg Cmaxu HCS,hLiMTs [8],-ve
same,hLiMTs <25x Avg Cmax All,hLiMTs [8],-ve
same,hLiMTs Cmax max All,hLiMTs [8],-ve
same,hLiMTs Cmax min All,hLiMTs [8],-ve
same,hLiMTs <10 uM All,hLiMTs [8],-ve
same,hLiMTs <100x Avg Cmaxu All,hLiMTs [8],-ve
same,hLiMTs ATP <100uM,hLiMTs [9],+VE (IC50 threshold of 100 µM)
same,"hLiMTs/100uM, Proctor (2017)",hLiMTs [9],+VE (IC50 threshold of 100 µM)
same,DILI severity category (Chen et al. [2016]),"[10]; LTKB DILIrank category, ref Chen et al. 2016",No
same,DILI severity category (Chen 2016),"[10]; human DILI classification, LTKB DILIrank, ref Chen et al. 2016",No
same,DILI severity category,"[10]; human DILI severity, ref Chen et al.",No
same,"DILI +VE (5-8), DILI -VE (-4)",[10]; ref Chen 2016,-VE
same,DILI severity category,[10]; ref Chen 2016,vNo-DILI-Concern
same,fu,[11],0.277
CCCC(CCC)C(=O)O [valproic acid],"PHH/100uM, Proctor (2017)",PHH [1],-VE
same,PHH ATP <100uM,PHH [1],-VE
same,Cluster 1-6 +VE Assay,[12],+VE
same,Cytotoxicity PHH 48 hrs,PHH [2],+VE
same,HepaRG <25x Avg Cmax ATP,HepaRG spheroids,+ve
same,HepaRG <100x Avg Cmaxu ATP,HepaRG spheroids,+ve (<100x Avg Cmaxu)
same,HepaRG <25x Avg Cmax HCS,HepaRG spheroids,+ve
same,HepaRG <100x Avg Cmaxu HCS,HepaRG spheroids,+ve (<100x Avg Cmaxu)
same,HepaRG <25x Avg Cmax All,HepaRG spheroids,+ve
same,HepaRG Cmax max All,HepaRG spheroids,+ve
same,HepaRG Cmax min All,HepaRG spheroids,+ve
same,HepaRG <10 uM All,HepaRG spheroids,-ve
same,HepaRG <100x Avg Cmaxu All,HepaRG spheroids,+ve (<100x Avg Cmaxu)
same,AC50,HepaRG spheroids; read-out: ATP endpoint AC50,41.3 µM
same,minimal effective concentration,HepaRG spheroids; read-out: ATP endpoint MEC,12.3 µM
same,AC50,HepaRG spheroids; read-out: HCS endpoint AC50,148 µM
same,minimal effective concentration,HepaRG spheroids; read-out: HCS endpoint MEC,45.6 µM
same,"Human plasma Cmax,u",[4],55.474 µM
same,THLE-Null,[13],-VE
same,Cluser analysis,HepG2 cells [14],-VE
same,Structural based (HCI),HepG2 cells [14],-VE
same,Partition Hybrid HRM Score,[5],+VE
same,Ro2 Hybrid HRM Score,[5],+VE
same,"Partition Hybrid HRM Score ≥4, Aleo (2019)",[5],+VE (Partition Hybrid HRM Score ≥4)
same,"Partition Hybrid HRM Score ≥8, Aleo (2019)",[5],+VE (Partition Hybrid HRM Score ≥8)
same,"Rule of Two hybrid HRM Score ≥3, Aleo (2019)",[5],+VE (Rule of Two hybrid HRM Score ≥3)
same,"Rule of Two hybrid HRM Score ≥8, Aleo (2019)",[5],-VE
same,Cmax,[7],693 µM
same,Cytotoxicity HepG2 48 hrs,HepG2,+VE
same,AC50,hLiMTs [8]; read-out: ATP endpoint AC50,7080 µM
same,minimal effective concentration,hLiMTs [8]; read-out: ATP endpoint MEC,6220 µM
same,minimal effective concentration,hLiMTs [8]; read-out: HCS endpoint MEC,1600 µM
same,hLiMTs <25x Avg Cmax ATP,hLiMTs [8],+ve
same,hLiMTs <100x Avg Cmaxu ATP,hLiMTs [8],-ve
same,hLiMTs <25x Avg Cmax HCS,hLiMTs [8],+ve
same,hLiMTs <100x Avg Cmaxu HCS,hLiMTs [8],+ve (<100x Avg Cmaxu)
same,hLiMTs <25x Avg Cmax All,hLiMTs [8],+ve
same,hLiMTs Cmax max All,hLiMTs [8],+ve
same,hLiMTs Cmax min All,hLiMTs [8],+ve
same,hLiMTs <10 uM All,hLiMTs [8],-ve
same,hLiMTs <100x Avg Cmaxu All,hLiMTs [8],+ve (<100x Avg Cmaxu)
same,hLiMTs ATP <100uM,hLiMTs [9],-VE
same,"hLiMTs/100uM, Proctor (2017)",hLiMTs [9],-VE
same,in vitro data EC2<=1x Cmax,[15],+VE
same,in vitro data EC20<=2uM,[15],-VE
same,fu,[11],0.080
